The structures appear in SMILES notation.

In the test the target is T1, IGF-1R Ba/F3 (Homo sapiens, UniProt P08069).
T1 construct: fused on or other part: TEL- (or BCR-) IGF-1R in Ba/F3: the kinase part holds the site
T1 sequence (P08069 999-1274 limits assumed): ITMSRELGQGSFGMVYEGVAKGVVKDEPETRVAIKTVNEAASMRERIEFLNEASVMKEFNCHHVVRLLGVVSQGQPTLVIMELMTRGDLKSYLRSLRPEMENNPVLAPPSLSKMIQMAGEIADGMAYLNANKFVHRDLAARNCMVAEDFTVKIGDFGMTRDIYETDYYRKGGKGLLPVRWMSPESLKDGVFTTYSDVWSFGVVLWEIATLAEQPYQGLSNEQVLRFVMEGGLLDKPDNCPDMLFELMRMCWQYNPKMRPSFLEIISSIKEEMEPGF
Description: Ba/F3 Cell Viability Inhibition Assay (IGF-1R Ba/F3). To be noted: Tel-TK transformed Ba/F3 cells, 48 hours, Britelite luminescence. In kind it is cell-based, murine. Summed up:
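A 48 h compound treatment at 37 °C (3750 cells/well) was followed by Britelite luminescence to measure viability. Cells were Ba/F3 pro-B cells, IL-3-independent via TEL-fused IGF-1R kinase transduction. A logistic fit gave IC50 as 50% viability relative to DMSO control.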
As usually defined, the IC50 is the point on the concentration scale where inhibition reaches its midpoint. In turn, `Cc1cc(Nc2nc(Nc3cc(C)c(C4CCN(CCS(=O)(=O)N5CCC5)CC4)cc3F)ncc2Cl)n[nH]1` [Compound 61, N2-(4-(1-(2-(azetidin-1-ylsulfonyl)ethyl)piperidin-4-yl)-2-fluoro-5-methylphenyl)-5-chloro-N4-(5-methyl-1H-pyrazol-3-yl)pyrimidine-2,4-diamine] registered a half-inhibitory concentration (IC50) of 56 nM.
The compound `Cc1cc(Nc2nc(Nc3cc(C(F)(F)F)c(C4CCN(CC(N)=O)CC4)cc3C)ncc2Cl)n[nH]1` [Compound 47, 2-(4-(4-(5-chloro-4-(5-methyl-1H-pyrazol-3-ylamino)pyrimidin-2-ylamino)-5-methyl-2-(trifluoromethyl)phenyl)piperidin-1-yl)acetamide] displayed an IC50 of 22 nM.
In turn, `CCOC(=O)N1CCC(c2cc(C)c(Nc3ncc(Cl)c(Nc4cc(C)[nH]n4)n3)cc2Cl)CC1` [Compound 67, ethyl 4-(2-chloro-4-(5-chloro-4-(5-methyl-1H-pyrazol-3-ylamino)pyrimidin-2-ylamino)-5-methylphenyl)piperidine-1-carboxylate] showed a half-inhibitory concentration (IC50) of 182 nM.
With `CNC1(C(=O)N2CCC(c3cc(F)c(Nc4ncc(Cl)c(Nc5cc(C)[nH]n5)n4)cc3C)CC2)CCC1` [Compound 177, (4-(4-(5-chloro-4-(5-methyl-1H-pyrazol-3-ylamino)pyrimidin-2-ylamino)-5-fluoro-2-methylphenyl)piperidin-1-yl)(1-(methylamino)cyclobutyl)methanone], half-maximal inhibition (IC50) was put at 80 nM.
Regarding `CCc1cc(Nc2ncc(Cl)c(Nc3cc(C)[nH]n3)n2)c(C)cc1C1CCN(CC(N)=O)CC1` [Compound 261, 2-(4-(4-(5-chloro-4-(5-methyl-1H-pyrazol-3-ylamino)pyrimidin-2-ylamino)-2-ethyl-5-methylphenyl)piperidin-1-yl)acetamide], the IC50 was found to be 27 nM.
As to `Cc1cc(Nc2nc(Nc3cc(C)c(C4=CCNCC4)cc3F)ncc2Cl)n[nH]1` [Compound 150, 5-chloro-N2-(2-fluoro-5-methyl-4-(1,2,3,6-tetrahydropyridin-4-yl)phenyl)-N4-(5-methyl-1H-pyrazol-3-yl)pyrimidine-2,4-diamine], the 50% inhibitory concentration (IC50) amounted to 25 nM.
`Cc1cc(Nc2nc(Nc3cc(C)c(C4CCN(S(=O)(=O)CCCN5CCOCC5)CC4)cc3C)ncc2Cl)n[nH]1` [Compound 194, 5-Chloro-N^2-(2,5-dimethyl-4-(1-(3-morpholinopropylsulfonyl)piperidin-4-yl)phenyl)-N^4-(5-methyl-1H-pyrazol-3-yl)pyrimidine-2,4-diamine] showed an IC50 of 13 nM. Against the preceding compound, the IC50 is about 1.9-fold lower.
The compound `Cc1cc(Nc2nc(Nc3cc(C)c(C4CCN(CCCS(=O)(=O)N5CCOCC5)CC4)cc3F)ncc2Cl)n[nH]1` [Compound 245, 5-chloro-N2-(2-fluoro-5-methyl-4-(1-(3-(morpholinosulfonyl)propyl)piperidin-4-yl)phenyl)-N4-(5-methyl-1H-pyrazol-3-yl)pyrimidine-2,4-diamine] displayed an IC50 of 77 nM.
`Cc1cc(Nc2nc(Nc3cc(C)c(C4CCN(CCC#N)CC4)cc3F)ncc2Cl)n[nH]1` [Compound 200, 3-(4-(4-(5-chloro-4-(5-methyl-1H-pyrazol-3-ylamino)pyrimidin-2-ylamino)-5-fluoro-2-methylphenyl)piperidin-1-yl)propanenitrile] registered an IC50 of 36 nM.
The same measure for `Cc1cc(Nc2nc(Nc3cc(C)c(C4CCN(C5CNC5)CC4)cc3F)ncc2Cl)n[nH]1` [Compound 296, N2-(4-(1-(azetidin-3-yl)piperidin-4-yl)-2-fluoro-5-methylphenyl)-5-chloro-N4-(5-methyl-1H-pyrazol-3-yl)pyrimidine-2,4-diamine]: 101 nM.
Regarding `Cc1cc(Nc2nc(Nc3cc(C)c(C4CCN(CCS(N)(=O)=O)CC4)cc3F)ncc2Cl)n[nH]1` [Compound 59, 2-(4-(4-(5-chloro-4-(5-methyl-1H-pyrazol-3-ylamino)pyrimidin-2-ylamino)-5-fluoro-2-methylphenyl)piperidin-1-yl)ethanesulfonamide], the IC50 stood at 38 nM.
Take `Cc1cc(Nc2nc(Nc3cc(C)c(C4CCN(C(=O)N5CCN(C)CC5)CC4)cc3F)ncc2Cl)n[nH]1` [Compound 112, (4-(4-(5-chloro-4-(5-methyl-1H-pyrazol-3-ylamino)pyrimidin-2-ylamino)-5-fluoro-2-methylphenyl)piperidin-1-yl)(4-methylpiperazin-1-yl)methanone]: the concentration for half-maximal inhibition (IC50) was 21 nM.
The compound `Cc1cc(Nc2nc(Nc3cc(C)c(C4CCN(C5CCC(O)CC5)CC4)cc3F)ncc2Cl)n[nH]1` (stereo not shown) [Compound 298, 4-(4-(4-(5-chloro-4-(5-methyl-1H-pyrazol-3-ylamino)pyrimidin-2-ylamino)-5-fluoro-2-methylphenyl)piperidin-1-yl)cyclohexanol] showed an IC50 of 26 nM.
Compound `Cc1cc(Nc2nc(Nc3cc(C)c(C4CCN([C@H]5CC[C@H](O)CC5)CC4)cc3F)ncc2Cl)n[nH]1` [Compound 310, Trans-4-(4-(4-(5-chloro-4-(5-methyl-1H-pyrazol-3-ylamino)pyrimidin-2-ylamino)-5-fluoro-2-methylphenyl)piperidin-1-yl)cyclohexanol] registered an IC50 of 27 nM. This IC50 and that of the compound before are within 1.5-fold of each other.
Compound `CNC(=O)[C@H](C)N1CCC(c2cc(C)c(Nc3ncc(Cl)c(Nc4cc(C)[nH]n4)n3)cc2C)CC1` [Compound 168, (S)-2-(4-(4-(5-chloro-4-(5-methyl-1H-pyrazol-3-ylamino)pyrimidin-2-ylamino)-2,5-dimethylphenyl)piperidin-1-yl)-N-methylpropanamide] registered an IC50 of 10 nM.
`Cc1cc(Nc2ncc(Cl)c(N[C@@H]3CCCCNC3=O)n2)c(F)cc1C1CCN(C)CC1` (single isomer, unassigned) [Compound 11]: the half-maximal inhibitory concentration (IC50) was 65 nM. This IC50 is about 6.5-fold higher than that of the compound before.
`Cc1cc(Nc2nc(Nc3cc(C)c(C4CCN(S(=O)(=O)C5CC5)CC4)cc3F)ncc2Cl)n[nH]1` [Compound 64, 5-chloro-N2-(4-(1-(cyclopropylsulfonyl)piperidin-4-yl)-2-fluoro-5-methylphenyl)-N4-(5-methyl-1H-pyrazol-3-yl)pyrimidine-2,4-diamine] returned an IC50 of 59 nM.
`Cc1cc(Nc2nc(Nc3cc(C)c(C4CCN(CC5CC5(F)F)CC4)cc3F)ncc2C(F)(F)F)n[nH]1` (stereo not shown) [Compound 251, N^2-(4-(1-((2,2-difluorocyclopropyl)methyl)piperidin-4-yl)-2-fluoro-5-methylphenyl)-N^4-(5-methyl-1H-pyrazol-3-yl)-5-(trifluoromethyl)pyrimidine-2,4-diamine] showed a half-inhibitory concentration (IC50) of 52 nM. This IC50 and that of the compound before are within 1.5-fold of each other.
As for `Cc1cc(Nc2nc(Nc3cc(C)c(C4CCN(Cc5ccccn5)CC4)cc3F)ncc2Cl)n[nH]1` [Compound 281, 5-chloro-N2-(2-fluoro-5-methyl-4-(1-(pyridin-2-ylmethyl)piperidin-4-yl)phenyl)-N4-(5-methyl-1H-pyrazol-3-yl)pyrimidine-2,4-diamine], the IC50 stood at 87 nM.
Compound `Cc1cc(Nc2nc(Nc3cc(C)c(C4CCCCN4C[C@@H](O)C(F)(F)F)cc3C)ncc2Cl)n[nH]1` (stereo partly drawn) [Compound 229, (2R)-3-(2-(4-(5-chloro-4-(5-methyl-1H-pyrazol-3-ylamino)pyrimidin-2-ylamino)-2,5-dimethylphenyl)piperidin-1-yl)-1,1,1-trifluoropropan-2-ol] showed an IC50 of 211 nM.
The compound `Cc1cc(Nc2nc(Nc3cc(C)c(C4CCN(C(=O)C5CN(C)C5)CC4)cc3C)ncc2Cl)n[nH]1` [Compound 120, (4-(4-(5-chloro-4-(5-methyl-1H-pyrazol-3-ylamino)pyrimidin-2-ylamino)-2,5-dimethylphenyl)piperidin-1-yl)(1-methylazetidin-3-yl)methanone] displayed a half-maximal inhibitory concentration (IC50) of 25 nM.
The same measure for `Cc1cc(Nc2nc(Nc3cc(C)c(C4CCN(C(=O)N(C)C)CC4)cc3F)ncc2Cl)n[nH]1` [Compound 69, 4-(4-(5-Chloro-4-(5-methyl-1H-pyrazol-3-ylamino)pyrimidin-2-ylamino)-5-fluoro-2-methylphenyl)-N,N-dimethylpiperidine-1-carboxamide]: 11 nM; for `Cc1cc(Nc2nc(Nc3cc(C)c(C4CCN(Cc5cccnc5)CC4)cc3C)ncc2Cl)n[nH]1` [Compound 308, 5-chloro-N2-(2,5-dimethyl-4-(1-(pyridin-3-ylmethyl)piperidin-4-yl)phenyl)-N4-(5-methyl-1H-pyrazol-3-yl)pyrimidine-2,4-diamine]: 6 nM; for `CCN1CCC(c2cc(F)c(Nc3ncc(Cl)c(Nc4cc(C)[nH]n4)n3)cc2C(F)(F)F)CC1` [Compound 240, 5-chloro-N2-(4-(1-ethylpiperidin-4-yl)-2-fluoro-5-(trifluoromethyl)phenyl)-N4-(5-methyl-1H-pyrazol-3-yl)pyrimidine-2,4-diamine]: 102 nM.
The same measure for `Cc1cc(Nc2nc(Nc3cc(C)c(C4CCN(CC(N)=O)CC4)cc3C)ncc2C(F)(F)F)n[nH]1` [Compound 202, 2-(4-(2,5-dimethyl-4-(4-(5-methyl-1H-pyrazol-3-ylamino)-5-(trifluoromethyl)pyrimidin-2-ylamino)phenyl)piperidin-1-yl)acetamide]: 20 nM; for `Cc1cc(Nc2nc(Nc3cc(C)c(C4CCN(S(=O)(=O)c5cccnc5)CC4)cc3F)ncc2Cl)n[nH]1` [Compound 65, 5-chloro-N2-(2-fluoro-5-methyl-4-(1-(pyridin-3-ylsulfonyl)piperidin-4-yl)phenyl)-N4-(5-methyl-1H-pyrazol-3-yl)pyrimidine-2,4-diamine]: 76 nM.
In turn, `Cc1cc(Nc2nc(Nc3cc(C)c(C4CCN(CCC(F)(F)F)CC4)cc3F)ncc2Cl)n[nH]1` [Compound 24, 5-chloro-N^2-(2-fluoro-5-methyl-4-(1-(3,3,3-trifluoropropyl)piperidin-4-yl)phenyl)-N^4-(5-methyl-1H-pyrazol-3-yl)pyrimidine-2,4-diamine] came in with an IC50 of 85 nM.
The value for `Cc1cc(Nc2nc(Nc3cc(C)c(C4CCCCN4C(=O)CN(C)C)cc3C)ncc2Cl)n[nH]1` (stereo not shown) [Compound 83, 1-(2-(4-(5-chloro-4-(5-methyl-1H-pyrazol-3-ylamino)pyrimidin-2-ylamino)-2,5-dimethylphenyl)piperidin-1-yl)-2-(dimethylamino)ethanone] was 13 nM.
